The text below walks through data of PMC4257840 (Journal of Medicinal Chemistry, 2014).

Series [1] has as its system rat alveolar macrophage line NR8383. The series can be described thus: Stability in the presence of airway macrophages. The format is in vitro ADME.
Description: Stability in the presence of epithelial cells and ma crophages.
NR8383 Airway macroph a ges
were grown in suspension culture in F12K, collected b y centrifugation, washed in serum-free
exposed to test compounds in serum-free F12K at a standard concentration of 100 nM in a 5%
CO2 environment at 37 °C. Samples were removed at selected time points for quantitative
Assa ys w ere p er formed in replicate and t he data ex pressed as mean ± SE.
Series [2] is described as follows: Pharmacokinetics after oral and iv dosing to rats. Format: in vivo, Sprague-Dawley rat. To be noted: rat; for Cmax / bioavailability: male, Sprague-Dawley, plasma, mean ± SE, n = 3; for Cmax / free conc Cmax: 5 mg/kg po; for bioavailability: po, 5 mg/kg, 5 mg/kg po compared with 1 mg/kg iv, nonfasted Sprague–Dawley rats, read-out: F % (bioavailability). On the procedure: (§1) Appendix 2. Pharmaco kinetics an d P l a s ma Protein Binding […]
Pharma cokinetics. In vivo PK characteristics were determined using non- fasted Sprague-Dawle y rats (mal e, 200-300 g, 10- 16 weeks of age) with groups of three animals per route per compound. Soluble formulations were developed and verified b y HP LC/UV s o that compounds were dosed discretel y b y the iv (1 mg/kg, 1 mL/kg) and po (5 mg/kg, 5 mL/kg) routes. Blood samples were obtained at various times after dosing and plasma prepared for LC -MS-MS quantification of the test substance after inclusion of an intern al standard . PK p aramet ers were calculated usin g a non -compartmental model in WinNonlin v5.2.
(§2) Plasma Protein Binding Assay. PPB was determined with a Rapid Equilibrium Dialysis device using 8 kDa molecular weight cut-off inserts (Fisher Scientific UK Ltd, Leicest ershire, UK) as described b y the manufacturer. R at (Sprague Dawl e y strain) plasma EDTA K2 (mixed gender, pooled, SeraLab, West Sussex, UK) was thawed and centrifuged at 13,000 x g for 10 min to remove precipitates before being spiked with compounds (5 µM). The concentrations of compounds in the plasma and buffer chambers were determined b y LC -MS-MS (AB Sciex 3200 QTrap) anal ysis after 4 h incubation at 37 °C. Binding was calculated from the concentration percentage in both chambers as shown below. Assays were p erfo rmed in replicate and the data

Another series addresses human liver Cat B (Homo sapiens, UniProt P07858). As to the kind of experiment: Cathepsin B inhibition assay. To be noted: read-out: Cat B IC50; mean ± SE.
The nature of series [3]: Measurement of LogD7.4 (n-octanol/PBS shake). To be noted: for logD at 1.5 h: single determination, n-octanol/PBS pH 7.4, read-out: Log D7.4. The format is physicochemical. On the procedure: Appendix 4. Measurement of LogD7.4
Test compounds (~1 mg) were weighed into 2 mL HPLC vials. n- Octanol (0.7 mL), pre-saturated with 10 mM phosphate buffered saline pH7.4 (PBS), was added to each vial followed b y PBS (0. 7 mL), which had been pre-saturat ed with n-octanol. The mixtures were shaken for 90 min and then centrifuged for 10 min at 4,000 rpm. The upper organic l ayer (0.2 m L) and the aqueous la yer (0.5 mL) were removed from each vial and anal yz e d b y LC -MS. Mass spect ral anal ysis was used to confirm peak identity whilst the concentration of compound was assessed by a diode arra y det ecto r. The logD for each compound was calculated b y takin g th e lo g of its concentration ratio between the oct anol and aqueous la ye r s.Given the robustness of the assa y and the fact that the info rmation was us ed onl y for gen eral guid ance, thes e measu rements were based on singlicate det erminations.

In series [4] the test system is nonsensitized rats challenged with a natural mixture of HDM allergens. To be noted: i.t. aerosol typically 60-360 min prior to allergen challenge, unsensitised BN rats.
In the next series the target is T1, Der p 1 (Dermatophagoides pteronyssinus, UniProt P08176).
T1 sequence (P08176 99-320): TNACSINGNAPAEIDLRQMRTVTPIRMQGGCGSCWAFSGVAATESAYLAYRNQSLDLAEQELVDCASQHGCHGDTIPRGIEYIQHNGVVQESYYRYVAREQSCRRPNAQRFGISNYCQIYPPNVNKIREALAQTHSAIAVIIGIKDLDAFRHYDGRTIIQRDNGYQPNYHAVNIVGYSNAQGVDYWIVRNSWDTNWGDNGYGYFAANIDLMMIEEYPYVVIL
The series can be described thus: biochemical. The format is biochemical. To be noted: mean ± SE.

Series [5] in a line: Plasma protein binding, Rapid Equilibrium Dialysis. The format is in vitro ADME. To be noted: both sexes, Sprague Dawley, plasma (EDTA K2, pooled), rat plasma, 4 h at 37 °C, read-out: PPB (converted). The procedure: as §1, §2
On the technique in general: Equilibrium dialysis compares concentrations on both sides of a semipermeable membrane.

Description for Der p 1: Automated screening of inhibitory activity toward group 1 HDM peptidase allergens was performed as described elsewhere[25],[43] with the minor modification that Der p 1 or Der f 1 were incubated with inhibitors for 20 min prior to initiation of reactions by addition of substrate. In initial screening, the activity of each compound was measured using a series of 10 doubling dilutions from a starting concentration of 50 μM. […] Assays were performed in triplicate for calculation of mean ± SE IC50 values.
Description for human liver Cat B: Inhibition of Cat B was measured as described with modifications.[25] […] Progress curves were followed at 30 °C by detection of fluorescence at 320/420 nm (excitation/emission).
In all cases, for reactions involving inhibitors, the amount of reaction buffer was adjusted to 60 μL, the inhibitor added as a 10 μL aliquot, and incubated for 20 min with the enzyme prior to reaction start.

Consider `CCCC[C@H](NC(=O)[C@H](C)NC(=O)[C@H](Cc1ccccc1)NC(=O)c1ccccc1)C(=O)C(=O)NC1CCCCC1` [Compound 5, N-{(S)-1-[(S)-1-((S)-1-Cyclohexylaminooxalyl-pentylcarbamoyl)-ethylcarbamoyl]-2-phenyl-ethyl}-benzamide], for which the “degraded by airway macrophages” value in series [1] (over a 2 h period) is more than 50%.
As a reminder, the Cmax is the highest concentration seen after dosing. What is called bioavailability is the share of a dose that reaches the circulation, judged against a reference dose that is usually intravenous. Broadly, the IC50 is the midpoint of a concentration-inhibition curve. In the case of `CC(C)[C@H](NC(=O)[C@H](C)NC(=O)[C@@H](NC(=O)c1ccccc1)C(C)(C)C)C(=O)C(=O)NC1CC1` [Compound 35], in series [2], the Cmax was 1140 ± 268 nM, the bioavailability amounted to 90 ± 11% and the “free conc Cmax” value is reported as 176 ± 0 nM. Also, the IC50 on human liver Cat B came out at 417 ± 25 nM. The logD in series [3] (pH 7.4, versus compound 22, read-out: reduction of measured log D on replacing cyclohexyl (22) by cyclopropyl) is approximately 1.5. In series [3], the logD at 1.5 h is 2.4. For the same molecule, the “duration of protection: trend of inhibition of eosinophil recruitment with increasing pre-treatment interval” value in series [4] is recorded as “rise to well-maintained”. This molecule also registered an IC50 at Der p 1 of 17 ± 1 nM. In series [5], the fraction unbound at 4 h, 5 µM was 0.155.
With `CC(C)[C@H](NC(=O)[C@H](C)NC(=O)[C@@H](NC(=O)c1ccnc2ccccc12)C(C)(C)C)C(=O)C(=O)NCc1ccccc1` [Compound 27, Quinoline-4-carboxylic Acid {(S)-1-[(S)-1-((S)-1-Benzylaminooxalyl-2-methyl-propylcarbamoyl)-ethylcarbamoyl]-2,2-dimethyl-propyl}-amide], the results for the IC50 on human liver Cat B and against Der p 1 were 3400 ± 187 nM and 18 ± 1 nM, respectively. Besides, the logD at 1.5 h in series [3] was determined as 3.4. In series [4], the “duration of protection: trend of inhibition of eosinophil recruitment with increasing pre-treatment interval” value is recorded as “rise to a peak”.
Take `CC(C)[C@H](NC(=O)[C@H](C)NC(=O)[C@@H](NC(=O)c1ccccc1)C(C)(C)C)C(=O)C(=O)NC1CCCCC1` [Compound 22, N-{(S)-1-[(S)-1-((S)-1-Cyclohexylaminooxalyl-2-methyl-propylcarbamoyl)-ethylcarbamoyl]-2,2-dimethyl-propyl}-benzamide]: the IC50 was found to be 378 ± 27 nM at human liver Cat B and 14 ± 3 nM against Der p 1. Moreover, the logD at 1.5 h in series [3] was found to be 3.9. For the same molecule, the “degradation by airway macrophages” value in series [1] (over 2 h) is on record as “no significant degradation”.
For the molecule `CC(C)[C@H](NC(=O)[C@H](C)NC(=O)[C@@H](N1Cc2ccccc2C1=O)C(C)(C)C)C(=O)C(=O)NCc1ccccc1` [Compound 28, (S)-3-{(S)-2-[(S)-3,3-Dimethyl-2-(1-oxo-1,3-dihydro-isoindol-2-yl)-butyrylamino]-propionylamino}-4-methyl-2-oxo-pentanoic Acid Benzylamide], in series [2], the peak level (Cmax) was 663 ± 26 nM, the bioavailability was found to be 20 ± 1% and the “free conc Cmax” value came to 11 ± 0 nM. Also, the IC50 on human liver Cat B worked out at 429 ± 65 nM. The logD at 1.5 h in series [3] was found to be 3.6. The molecule also yielded an IC50 against Der p 1 of 7 ± 1 nM. Also, the fraction unbound at 4 h, 5 µM in series [5] was 0.02.
`CC(C)[C@H](NC(=O)[C@H](C)NC(=O)[C@@H](NC(=O)c1ccncc1)C(C)(C)C)C(=O)C(=O)NC1CCCCC1` [Compound 29, N-{(S)-1-[(S)-1-((S)-1-Cyclohexylaminooxalyl-2-methyl-propylcarbamoyl)-ethylcarbamoyl]-2,2-dimethyl-propyl}-isonicotinamide]: the values for the IC50 at human liver Cat B and on Der p 1 were 231 ± 17 nM and 13 ± 1 nM, respectively. In addition, the logD at 1.5 h in series [3] came out at 2.8. Further, in series [4], the “duration of protection: trend of inhibition of eosinophil recruitment with increasing pre-treatment interval” value is listed as “rise to a peak”.
Turning to `CC(C)[C@H](NC(=O)[C@H](C)NC(=O)[C@H](Cc1ccccc1)NC(=O)c1ccccc1)C(=O)C(=O)NCC(=O)N1CCN(C)CC1` [Compound 45, N-[(S)-1-((S)-1-{(S)-2-Methyl-1-[2-(4-methyl-piperazin-1-yl)-2-oxo-ethylaminooxalyl]-propylcarbamoyl}-ethylcarbamoyl)-2-phenyl-ethyl]-benzamide], the IC50 at human liver Cat B came out at 544 ± 40 nM; against Der p 1, 14 ± 1 nM. Besides, the logD at 1.5 h in series [3] worked out at 1.3. The “duration of protection: trend of inhibition of eosinophil recruitment with increasing pre-treatment interval” value in series [4] was “waned”.
In the case of `CC(C)C(NC(=O)[C@H](C)NC(=O)[C@H](Cc1ccccc1)NC(=O)c1ccccc1)C(=O)C(=O)NC1CCCCC1` (mixture of isomers) [Compound 19], the IC50 on human liver Cat B stood at 52 ± 5 nM; at Der p 1 it was 18 ± 2 nM. Also, the “remaining unchanged (processing by airway macrophages)” value in series [1] (after 2 h) is approximately 70%.
